Laboratory results reported in publication PMC10530652 (BME Frontiers, 2021).

Legend:
MMP-2 = biological target: T1, MMP-2 (Homo sapiens, UniProt P08253); assay: In vitro enzymatic validation of FIB One with recombinant MMP-2 (plate reader); assay type: biochemical; conditions: MMP 30 nM
T1 construct: recombinant MMPs (Enzo Life Sciences) (active domains of MMP-1, MMP-2, MMP-3, MMP-7, MMP-8, MMP-9, MMP-10, MMP-11, MMP-12, and MMP-13); purchased Enzo Life Sciences
Protocol: (§1) To determine the enzymatic specificity of FIB One, the probe was incubated at a concentration of 1 μM (unless otherwise stated) with the recombinant MMPs (Enzo Life Sciences) (active domains of MMP-1, MMP-2, MMP-3, MMP-7, MMP-8, MMP-9, MMP-10, MMP-11, MMP-12, and MMP-13, all at 30 nM), thrombin (Sigma Aldrich) (5 U/mL), factor Xa (Sigma Aldrich) (500 nM), plasmin (Sigma Aldrich) (30 nM), and human neutrophil elastase (30 nM). Where appropriate, enzymes were incubated with specific inhibitors for 30 min at 37°C prior to addition of FIB One. […] Enzyme free reactions served as a control. Enzymatic reactions were performed in MMP buffer (10 mM CaCl2, 6.1 g Tris-HCl, 8.6 g NaCl per litre, pH 7.5) in a final volume of 20 μL. Reactions were performed in duplicate in 384-well plates (Life Technologies) with optically clear plate seals (Thermo Scientific) and repeated thrice (independently). Fluorescence signal was measured for up to 60 min, ex/em 485/528 nm using microplate reader (BioTek Synergy H1 multimode reader). Data were normalised to buffer alone and are presented as fold-change in signal (relative fluorescent units, RFU) compared to enzyme-free controls. Data were plotted using Prism 7 (GraphPad Software Inc., La Jolla, CA, USA).

MMP-13 = biological target: T2, MMP-13 (Homo sapiens, UniProt P45452); assay: In vitro enzymatic validation of FIB One with recombinant MMP-13 (plate reader); assay type: biochemical; conditions: MMP 30 nM
T2 construct: recombinant MMPs (Enzo Life Sciences) (active domains of MMP-1, MMP-2, MMP-3, MMP-7, MMP-8, MMP-9, MMP-10, MMP-11, MMP-12, and MMP-13); purchased Enzo Life Sciences
Protocol: as §1, with “Fluorescence signal was measured for up to 60 min, ex/em 485/528 nm using microplate reader (BioTek Synergy H1 multimode reader).” left out

[1] = test system: MMP activity in the alveolar space; assay: In vivo assessment of FIB One and AZD1236 with TLBC in patients; set-up: species or system human; conditions: 500 μL AZD1236 14 μg/mL predelivered, then 500 μL FIB One 20 μg/mL, nine patients
Protocol: In subsequent testing the Miniaturized Alveoflex™-TLBC combination replaced the Alveoflex™ fibre. The entire apparatus was passed transbronchially to allow direct alveolar imaging before localised delivery of agents. Once transbronchial pass was accomplished, baseline lung imaging was recorded for at least 30 sec. A 500 μL microdose of either AZD1236 (14 μg/mL) or sterile PBS (control) was administered under direct observation, and further imaging was obtained for >60 sec. 500 μL of FIB One (20 μg/mL) (delivered only after at least 60s to allow MMP inhibition) was then dosed to the same area with a further 90-120 sec of imaging captured. If considerable movement due to breathing or coughing was encountered, imaging was halted and a new segment identified. Up to 6 segments of interest were investigated per patient determined by patient tolerance.
All video sequences were assessed by two clinicians with clinical experience of pulmonary endomicroscopy. Frames with excessive movement or lack of recognizable alveolar structure were removed from analysis. Videos were assessed to ensure stability throughout the imaging procedure. […] All video files were analysed using the Cellvizio® Viewer image processing software from Mauna Kea Technologies, Paris. […] The median RFU was calculated for each category and used as a comparative value between groups.

Crl:WI(Han) rats [2] = assay: Single intratracheal administration toxicity study of AZD1236; assay type: in vivo, rat; conditions: 35 µg/animal (70 µg/mL)
Protocol: (§2) Assessment of toxicity of AZD1236 was based on clinical signs, body weight, food consumption, clinical and anatomic pathology evaluations. Complete necropsies were performed on all animals with a recording of macroscopic abnormalities for all tissues. Organ weights and microscopic examinations were conducted as indicated.

erythrocyte = assay: Erythrocyte hemolysis; assay type: cell-based
Crl:WI(Han) rats [3] = assay: Single intratracheal administration toxicity study of FIB One; assay type: in vivo; conditions: 100 µg/animal (500 µg/mL)
Protocol: as §2, with “FIB One” for “AZD1236”, “consumption and” for “consumption,”

[4] = test system: Salmonella typhimurium strain TA100; assay: Reduced test article AMES test, TA100; assay type: cell-based; conditions: up to 250 μg/well, in the absence and presence of rat liver S-9
Protocol: These conditions included treatments at concentrations up to 250 μg/well (a 20-fold pro rata reduction from the standard regulatory Ames assay maximum concentration), in the absence and in the presence of a rat liver metabolic activation system (S-9).

[5] = AZD1236 0.11-14 µM, FIB One 1 µM
[6] = FIB One 1 μM, MMP buffer pH 7.5, ex/em 485/528 nm, fold-change vs enzyme-free control, n=3 in duplicate

T1 sequence (P08253 110-446 limits assumed): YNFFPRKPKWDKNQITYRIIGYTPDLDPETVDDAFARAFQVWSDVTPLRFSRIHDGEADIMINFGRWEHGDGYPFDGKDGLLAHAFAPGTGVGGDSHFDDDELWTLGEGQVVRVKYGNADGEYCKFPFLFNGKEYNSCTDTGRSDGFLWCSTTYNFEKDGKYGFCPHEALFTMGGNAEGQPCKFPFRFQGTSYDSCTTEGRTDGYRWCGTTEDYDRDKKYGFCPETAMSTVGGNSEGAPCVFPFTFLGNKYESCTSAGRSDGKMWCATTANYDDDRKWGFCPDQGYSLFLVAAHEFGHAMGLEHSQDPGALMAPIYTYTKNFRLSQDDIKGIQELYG

Substance | inhibition of MMP (MMP-2; [5]) | inhibition of MMP (MMP-13; [5]) | drug-target engagement within the alveolar space [1] | deaths, clinical signs, body weight, food consumption, clinical or anatomic pathology (Crl:WI(Han) rats [2]) | tolerability, acute or delayed toxicity (Crl:WI(Han) rats [2]) | fluorescent amplification of FIB One on exposure to enzyme (MMP-2; [6]) | fluorescent amplification of FIB One on exposure to enzyme (MMP-13; [6]) | signal amplification compared with analogous monomeric linear structure (FRET-monomer) (MMP-13; probes 1 µM, 10 min incubation, n=3 in duplicate) | erythrocyte hemolysis (erythrocyte) | deaths, clinical signs, body weight, food consumption, clinical or anatomic pathology (Crl:WI(Han) rats [3]) | mutation induction [4]
AZD1236 | ability to inhibit | ability to inhibit | in situ in vivo drug-target engagement | no deaths, no adverse clinical signs and no effects of treatment | well tolerated with no evidence of acute or delayed toxicity | – | – | – | – | – | –
(Pro-Phe-Gly-Nle-Lys-βAla)3 [FIB One] | – | – | – | – | – | rapid and specific fluorescent amplification | rapid and specific fluorescent amplification | improved signal amplification | absence of erythrocyte hemolysis | no deaths, no adverse clinical signs and no effects of treatment | did not induce mutation
